The values below are quoted from earlier work in patent US9555150B2, “Absorbent articles comprising an organic zinc salt and an anti-bacterial agent or alkali metal chloride or alkaline earth metal chloride” (SCA HYGIENE PRODUCTS AB, priority 2006, dated 2017).

Molecules are shown by their SMILES.

The conditions of this data set: measured in water at 25° C.
For `CC(=O)O` [Acetic acid, acetic acid], the pK is on record as 4.75.
Consider `O=C(O)c1ccccc1` [benzoic acid], for which the pK is recorded as 4.19.
As for `C/C=C/C=C/C(=O)O` [sorbic acid], the pK was 4.76.
